One test concerns the target T1, CRM1 (Homo sapiens, UniProt O14980).
T1 construct: HeLa cells stably expressing a fluorescent translocation biosensor (HeLaRevBio); endogenous in cells; host or cells: HeLa (HeLaRevBio in A7; HeLa in A8)
Put plainly: Monitoring export inhibitory activity (translocation biosensor, HeLaRevBio cells). The test is classed as cell-based. The protocol: Export inhibitory ability of compounds was evaluated with the translocation biosensor system. This cellular assay depends on a recombinantly expressed fusion protein consisting of a nuclear localization signal (SV40-NLS), glutathione S-transferase (GST), green fluorescent protein (GFP) and a nuclear export signal (HIV1-RevNES). Due to the two transport signals (NLS/NES), the biosensor is permanently shuttling between nucleus and cytoplasm but resides prominently in the cytoplasm due to a comparatively stronger NES. Export inhibiting compound induce a nuclear accumulation of the GFP-signal^[65,66] Cell lines were maintained as recommended by the American Type Culture Collection in DMEM containing 5% glutamine (Thermo Fisher Scientific, Waltham, USA) supplemented with 10% FBS (Thermo Fisher Scientific, Waltham, USA). For quantifying the nuclear export inhibitory effect, HeLa cells stably expressing a fluorescent translocation biosensor (HeLaRevBio)^[67] were seeded into black 96 well μclear plates (Greiner, Germany). They next day compounds were added covering an appropriate concentration range. After 1h of incubation, cells were fixed in 4% PFA for 10 min and permeabilized with 0.1% Triton X 100 in PBS for 5 min. After washing with PBS nuclei were labeled with Hoechst H33342 (30 min 10 μg/ml). The intracellular distribution of the biosensor-dependent GFP signal was quantitatively evaluated with the high content imaging system ImageXpress MicroXLS (Molecular Devices, Sunnyvale, USA). By using the translocation enhanced application module (Molecular Devices, Sunnyvale, USA) the GFP-intensity was quantified in the cytoplasm and nuclear region. As final readout the difference of Mean Inner and Mean Outer Intensity was calculated. IC50s of nuclear export inhibition were calculated using Sigma Plot with four parameter logistics curve regression (Systat Software GmbH, Erkrath, Germany). […] The following day compounds were added at 125 nM final concentration.

In test [1] the test system is A549 (DSMZ ACC 107) cells. Description: cells. The test is classed as cell-based. Particulars: Homo sapiens, A549, 120 h. On the procedure: (§1) 60 μL of serial dilutions of the test compound were given to 120 μL of suspended cells (50.000/mL) in wells of 96-well plates. After 5 days of incubation growth inhibition (IC50) was determined using an MTT assay.^[64]
Test [2] relates to SKOV-3 (DSMZ ATCC HTB 77) cells. Put plainly: cells. In kind it is cell-based. Particulars: Homo sapiens, SK-OV-3, 120 h. On the procedure: as §1
Test [3] concerns MCF-7 (DSMZ ACC 115) cells. Put plainly: cells. The test is classed as cell-based. Particulars: Homo sapiens, MCF7, 120 h. On the procedure:
as §1

Test [4] concerns KB 3.1 (DSMZ ACC 158) cells. Put plainly: cells. Particulars: Homo sapiens, KB 3-1, 120 h.
Setting [5] is: HeLa cells stably expressing translocation biosensor, 1h of incubation, read-out: IC50 [nM] CRM1 (nuclear export inhibition).
[6] abbreviates: read-out: IC50 [nM] A-549, growth inhibition, 5 days of incubation, MTT assay.
The mark [7] stands for this setting: read-out: IC50 [nM] SK-OV-3, growth inhibition, 5 days of incubation, MTT assay.
Setting [8] is: read-out: IC50 [nM] MCF-7, growth inhibition, 5 days of incubation, MTT assay.
The mark [9] stands for this setting: read-out: IC50 [nM] KB-3.1, growth inhibition, 5 days of incubation, MTT assay.

Like-named read-outs stand apart in the source and are kept apart here.

A word on the IC50: it is the concentration at which inhibition is half-maximal.

T1 sequence (O14980 whole entry): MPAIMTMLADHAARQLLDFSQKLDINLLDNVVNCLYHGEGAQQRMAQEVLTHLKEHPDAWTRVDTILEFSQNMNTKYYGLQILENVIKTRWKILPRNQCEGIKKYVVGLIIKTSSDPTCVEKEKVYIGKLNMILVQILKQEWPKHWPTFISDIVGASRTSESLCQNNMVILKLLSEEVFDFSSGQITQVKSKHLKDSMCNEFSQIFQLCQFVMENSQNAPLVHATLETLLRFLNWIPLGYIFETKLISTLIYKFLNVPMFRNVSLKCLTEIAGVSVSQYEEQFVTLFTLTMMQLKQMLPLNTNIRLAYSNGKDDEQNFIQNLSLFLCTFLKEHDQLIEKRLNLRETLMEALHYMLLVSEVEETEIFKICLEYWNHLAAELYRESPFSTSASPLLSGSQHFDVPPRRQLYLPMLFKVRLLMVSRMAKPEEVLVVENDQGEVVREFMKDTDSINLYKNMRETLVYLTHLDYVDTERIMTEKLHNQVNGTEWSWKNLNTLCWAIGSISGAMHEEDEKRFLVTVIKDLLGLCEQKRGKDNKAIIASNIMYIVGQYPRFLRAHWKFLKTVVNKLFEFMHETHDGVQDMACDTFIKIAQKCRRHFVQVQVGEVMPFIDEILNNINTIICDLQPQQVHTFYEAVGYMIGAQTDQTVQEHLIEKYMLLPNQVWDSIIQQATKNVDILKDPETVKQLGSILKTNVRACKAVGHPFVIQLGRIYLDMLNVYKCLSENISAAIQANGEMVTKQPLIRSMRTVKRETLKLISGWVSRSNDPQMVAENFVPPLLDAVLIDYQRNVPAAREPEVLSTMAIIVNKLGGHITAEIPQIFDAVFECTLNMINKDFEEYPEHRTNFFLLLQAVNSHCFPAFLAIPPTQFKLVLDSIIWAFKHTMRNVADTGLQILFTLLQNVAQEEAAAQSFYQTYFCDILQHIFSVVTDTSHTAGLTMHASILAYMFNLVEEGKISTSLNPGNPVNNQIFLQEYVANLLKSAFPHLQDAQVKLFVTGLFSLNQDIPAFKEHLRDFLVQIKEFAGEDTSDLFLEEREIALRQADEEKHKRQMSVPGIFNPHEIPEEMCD

For `C/C=C/[C@@H]1O[C@H]([C@@H](/C=C/C=C(\C)C[C@@H](C)/C=C(C)\C=C\[C@H]2CC=CC(=O)O2)NC(=O)CCSSc2ccccn2)C[C@@H](O)[C@@H]1C` [2-PySS(CH2)2(CO)NH-Ratja 35, N-((1R,2E,4E,7R,8Z,10E)-1-((2S,4R,5S,6S)-4-Hydroxy-5-methyl-6-((E)-prop-1-en-1-yl)tetrahydro-2H-pyran-2-yl)-5,7,9-trimethyl-11-((R)-6-oxo-3,6-dihydro-2H-pyran-2-yl)undeca-2,4,8,10-tetraen-1-yl)-3-(pyridin-2-yldisulfaneyl)propanamide], the IC50 on CRM1 (setting [5]) amounted to 44.1 nM; in test [1] (setting [6]), 30.6 nM; in test [2] (setting [7]) it was 24.6 nM; in test [3] (setting [8]), 26 nM; in test [4] (setting [9]), 8.8 nM.
In the same order, the values of `C/C=C/[C@@H]1O[C@H](C(=O)/C=C/C=C(\C)C[C@@H](C)/C=C(C)\C=C\[C@H]2CC=CC(=O)O2)CC(=O)[C@@H]1C` [16,19-Dioxo-Ratjadone 10, (R)-6-((R,1E,3Z,7E,9E)-3,5,7-trimethyl-11-((2S,5R,6S)-5-methyl-4-oxo-6-((E)-prop-1-en-1-yl)tetrahydro-2H-pyran-2-yl)-11-oxoundeca-1,3,7,9-tetraen-1-yl)-5,6-dihydro-2H-pyran-2-one] are 17.5 nM, 9.72 nM, 1.59 nM, 2.87 nM and 3.98 nM.
`C/C=C/[C@@H]1O[C@H]([C@H](/C=C/C=C(\C)C[C@@H](C)/C=C(C)\C=C\[C@H]2CC=CC(=O)O2)NC(=O)OC)C[C@@H](O)[C@@H]1C` [16R-Amino-Ratjadone methyl carbamate 19, methyl ((1S,2E,4E,7R,8Z,10E)-1-((2S,4R,5S,6S)-4-hydroxy-5-methyl-6-((E)-prop-1-en-1-yl)tetrahydro-2H-pyran-2-yl)-5,7,9-trimethyl-11-((R)-6-oxo-3,6-dihydro-2H-pyran-2-yl)undeca-2,4,8,10-tetraen-1-yl)carbamate]: the results for the IC50 (against CRM1; in test [4] (setting [9])) were 12.5 nM and 2.53 nM, respectively.
Take `C/C=C/[C@@H]1O[C@H]([C@@H](/C=C/C=C(\C)C[C@@H](C)/C=C(C)\C=C\[C@H]2CC=CC(=O)O2)NC(=O)OC)C[C@@H](O)[C@@H]1C` [16S-Amino-Ratjadone methyl carbamate 20, methyl ((1R,2E,4E,7R,8Z,10E)-1-((2S,4R,5S,6S)-4-hydroxy-5-methyl-6-((E)-prop-1-en-1-yl)tetrahydro-2H-pyran-2-yl)-5,7,9-trimethyl-11-((R)-6-oxo-3,6-dihydro-2H-pyran-2-yl)undeca-2,4,8,10-tetraen-1-yl)carbamate]: the IC50 came out at 23.5 nM against CRM1 and 8.18 nM in test [4] (setting [9]).
Turning to `C/C=C/[C@@H]1O[C@H]([C@@H](/C=C/C=C(\C)C[C@@H](C)/C=C(C)\C=C\[C@H]2CC=CC(=O)O2)NC(=O)OCc2ccc(NC(=O)[C@H](CCCNC(N)=O)NC(=O)[C@@H](NC(=O)OC[C@@H]3[C@@H]4CCC#CCC[C@@H]43)C(C)C)cc2)C[C@@H](O)[C@@H]1C` [BCN—O(CO)HN-Val-Cit-PABO(CO)NH-Ratja 31, ((1R,8S,9s)-bicyclo[6.1.0]non-4-yn-9-yl)methyl ((S)-1-(((S)-1-((4-(((((1R,2E,4E,7R,8Z,10E)-1-((2S,4R,5S,6S)-4-hydroxy-5-methyl-6-((E)-prop-1-en-1-yl)tetrahydro-2H-pyran-2-yl)-5,7,9-trimethyl-11-((R)-6-oxo-3,6-dihydro-2H-pyran-2-yl)undeca-2,4,8,10-tetraen-1-yl)carbamoyl)oxy)methyl)phenyl)amino)-1-oxo-5-ureidopentan-2-yl)amino)-3-methyl-1-oxobutan-2-yl)carbamate], the IC50 was found to be 346 nM against CRM1; 39.5 nM in test [1] (setting [6]); 34.7 nM in test [2] (setting [7]); 20.2 nM in test [3] (setting [8]); 25.1 nM in test [4] (setting [9]).
`C#CCCOC(=O)N[C@H](C(=O)N[C@@H](CCCNC(N)=O)C(=O)Nc1ccc(COC(=O)N[C@H](/C=C/C=C(\C)C[C@@H](C)/C=C(C)\C=C\[C@H]2CC=CC(=O)O2)[C@@H]2C[C@@H](O)[C@H](C)[C@H](/C=C/C)O2)cc1)C(C)C` [But-3-yn-1-yl ((S)-1-(((S)-1-((4-(((((1R,2E,4E,7R,8Z,10E)-1-((2S,4R,5S,6S)-4-hydroxy-5-methyl-6-((E)-prop-1-en-1-yl)tetrahydro-2H-pyran-2-yl)-5,7,9-trimethyl-11-((R)-6-oxo-3,6-dihydro-2H-pyran-2-yl)undeca-2,4,8,10-tetraen-1-yl)carbamoyl)-oxy)methyl)phenyl)amino)-1-oxo-5-ureidopentan-2-yl)amino)-3-methyl-1-oxobutan-2-yl)carbamate]: the IC50 in test [1] (growth inhibition, 5 days of incubation, MTT assay, read-out: IC50 [nM] A-549) came to 25.1 nM; in test [2] (growth inhibition, 5 days of incubation, MTT assay, read-out: IC50 [nM] SK-OV-3), 13.6 nM; in test [3] (growth inhibition, 5 days of incubation, MTT assay, read-out: IC50 [nM] MCF-7), 12.5 nM; in test [4] (read-out: IC50 [nM] KB-3.1), 9.2 nM.
As for `C#CCCC(=O)N[C@H](/C=C/C=C(\C)C[C@@H](C)/C=C(C)\C=C\[C@H]1CC=CC(=O)O1)[C@@H]1C[C@@H](O)[C@H](C)[C@H](/C=C/C)O1` [Compound 22, N-((1R,2E,4E,7R,8Z,10E)-1-((2S,4R,5S,6S)-4-hydroxy-5-methyl-6-((E)-prop-1-en-1-yl)tetrahydro-2H-pyran-2-yl)-5,7,9-trimethyl-11-((R)-6-oxo-3,6-dihydro-2H-pyran-2-yl)undeca-2,4,8,10-tetraen-1-yl)pent-4-ynamide], the IC50 on CRM1 (setting [5]) was 23.2 nM; in test [1] (setting [6]), 0.58 nM; in test [2] (setting [7]) it was 0.44 nM; in test [3] (setting [8]), 0.4 nM; in test [4] (setting [9]), 1.05 nM.
In the same order, the values of `C#CCCOC(=O)N[C@H](/C=C/C=C(\C)C[C@@H](C)/C=C(C)\C=C\[C@H]1CC=CC(=O)O1)[C@@H]1C[C@@H](O)[C@H](C)[C@H](/C=C/C)O1` [Compound 24, But-3-yn-1-yl ((1R,2E,4E,7R,8Z,10E)-1-((2S,4R,5S,6S)-4-hydroxy-5-methyl-6-((E)-prop-1-en-1-yl)tetrahydro-2H-pyran-2-yl)-5,7,9-trimethyl-11-((R)-6-oxo-3,6-dihydro-2H-pyran-2-yl)undeca-2,4,8,10-tetraen-1-yl)carbamate] are 46.1 nM, 1.25 nM, 0.45 nM, 0.27 nM and 0.47 nM.
In the same order, the values of `C#CCCOC(=O)N[C@@H](/C=C/C=C(\C)C[C@@H](C)/C=C(C)\C=C\[C@H]1CC=CC(=O)O1)[C@@H]1C[C@@H](O)[C@H](C)[C@H](/C=C/C)O1` [Compound 25, But-3-yn-1-yl ((1S,2E,4E,7R,8Z,10E)-1-((2S,4R,5S,6S)-4-hydroxy-5-methyl-6-((E)-prop-1-en-1-yl)tetrahydro-2H-pyran-2-yl)-5,7,9-trimethyl-11-((R)-6-oxo-3,6-dihydro-2H-pyran-2-yl)undeca-2,4,8,10-tetraen-1-yl)carbamate] are 12 nM, 2.45 nM, 1.2 nM, 0.62 nM and 1.23 nM.
For `C#CCCC(=O)NCCSSCCC(=O)N[C@H](/C=C/C=C(\C)C[C@@H](C)/C=C(C)\C=C\[C@H]1CC=CC(=O)O1)[C@@H]1C[C@@H](O)[C@H](C)[C@H](/C=C/C)O1` [N-(2-((3-(((1R,2E,4E,7R,8Z,10E)-1-((2S,4R,5S,6S)-4-hydroxy-5-methyl-6-((E)-prop-1-en-1-yl)tetrahydro-2H-pyran-2-yl)-5,7,9-trimethyl-11-((R)-6-oxo-3,6-dihydro-2H-pyran-2-yl)undeca-2,4,8,10-tetraen-1-yl)amino)-3-oxopropyl)disulfaneyl)-ethyl)pent-4-ynamide], the IC50 is 0.86 nM in test [1] (setting [6]), 1.09 nM in test [2] (setting [7]), 0.17 nM in test [3] (setting [8]) and 1.86 nM in test [4] (setting [9]).
